Laboratory results published in patent US6048540A, “Acetamenophen composition with reduced liver toxicity” (Chong Kun Dang Corp., priority 1997, dated 2000).

How the values were obtained:
[1] = Stability test: content on storage and shelf life; conditions: calculated with Arrehnius equation; component of prescription (b) of Example 2
[2] = low dose; cited from earlier work

Row | Structure (SMILES) | Shelf life (time that content maintains more than 90% of initial at 25° C.) [1] | eliminated as unmetabolized form [2]
1 | CSCCC(N)C(=O)O (racemic) [DL-Methionine] | 35.64 months | 
2 | CC(=O)Nc1ccc(O)cc1 [Acetaminophen] | 35.94 months | about 2%
3 | Cn1c(=O)c2c(ncn2C)n(C)c1=O [Caffeine anhydrous] | 89.84 months | 
4 | N[C@@H](CC(=O)[O-])C(=O)[O-].O.[Na+].[Na+] [Sodium L-aspartate monohydrate] | 33.86 months | 
